System: Syk kinase
Assay: Phosphorylation of proteins in the FcεRI cascade in activated CHMC cells
Format: cell-based, human
Settings: activated CHMC cells (FIG. 10)
Protocol: Following electrophoresis, the phosphorylation of the proteins indicated in FIGS. 7, 10 and 11A-D were assessed by immunoblot. Antibodies were purchased from Cell Signaling Technology, Beverley, Mass.

SMILES	phosphorylation of proteins downstream of LYN kinase but not Syk kinase
CC(C)(C)n1nc(-c2ccc(Cl)cc2)c2c(N)ncnc21 [PP2, reference compound]	inhibition of phosphorylation of proteins downstream of LYN kinase but not Syk kinase

System: bone marrow derived mast cells (BMMC)
Assay: BMMC high cell density IgE activation: IL-6
Format: cell-based, mouse
Settings: High Density section of TABLE 1, BMMC, anti-IgE activation, IL-6; read-out: BMMC anti-IgE IL-6 IC50
Summary of the method: (§1)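 Mediator release from sensitized BMMC: after 1 h compound exposure at 37 °C (0.5% DMSO), cells challenged with DNP-BSA for 1 h and early supernatant collected. Cells then recultured 4-5 h in conditioned medium with compound; cytokines IL-6 and TNFα quantified by ELISA.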

SMILES	IC50
CC(C)Oc1ccc(Nc2nc(Nc3cccc(OCCO)c3)ncc2F)cc1 [Compound R935156]	< 220 nM
Nc1cccc(Nc2ncc(F)c(Nc3ccc4c(c3)OCCO4)n2)c1 [Compound R950207]	< 220 nM
OCCOc1cccc(Nc2ncc(F)c(Nc3ccc4c(c3)OCCO4)n2)c1 [Compound R935154]	41 nM

System: bone marrow derived mast cells (BMMC)
Assay: BMMC high cell density IgE activation: LTC4
Format: cell-based, mouse
Settings: High Density section of TABLE 1, BMMC, anti-IgE activation, LTC4; read-out: BMMC anti-IgE LTC4 IC50
Protocol: (§2) After sensitizing, cells are counted, pelleted (1000 rpm, 5-10 minutes), and resuspended at 1-3×10^6 cells/ml in MT buffer. Add 100 ul of cell suspension to each well and 100 ul of compound dilutions. The final vehicle concentration is 0.5% DMSO. Incubate at 37° C. (5% CO2) for 1 hour. After 1 hour of compound treatment, stimulate cells with 6× stimulus (60 ng/ml DNP-BSA). Mix wells with the cells and allow plates to incubate at 37° C. (5% CO2) for one hour. After 1 hour incubation, pellet cells (10 minutes, 1000 RPM) and collect 200 ul per well of the supernatant, being careful not to disturb pellet, and transfer to a clean tube or 96-well plate. Place the supernatant plate on ice. During the 4-5 hour step (see next) perform the hexosiminidase assay. Resuspend cell pellet in 240 ul WEI-conditioned media containing 0.5% DMSO and corresponding concentration of compound. Incubate BMMC cells for 4-5 hours at 37° C. (5% CO2). After incubation, pellet cells (1000 RPM, 10 minutes) and collect 225 ul per well and place in −80° C. until ready to perform ELISAS. ELISAS are performed on appropriately diluted samples (determined empirically for each donor cell population so that the sample measurement falls within the standard curve) following the supplier's instructions.

SMILES	IC50
CC(C)Oc1ccc(Nc2nc(Nc3cccc(OCCO)c3)ncc2F)cc1 [Compound R935156]	433 nM
Nc1cccc(Nc2ncc(F)c(Nc3ccc4c(c3)OCCO4)n2)c1 [Compound R950207]	288 nM
OCCOc1cccc(Nc2ncc(F)c(Nc3ccc4c(c3)OCCO4)n2)c1 [Compound R935154]	547 nM

System: cultured human mast cells (CHMC)
Assay: CHMC high cell density IgE activation: histamine
Format: cell-based
Settings: not given
Summary of the method: (§3)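 IgE-sensitized CHMC at 1-2 ×10^6 cells/ml were preincubated with compound (0.5% DMSO) for 1 h at 37 °C, then stimulated with anti-IgE for 1 h before supernatant collection. Pellets were reincubated with compound for 7 h at 37 °C, and mediators were measured by ELISA on diluted supernatants.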

SMILES	IC50
O=C(NCCO)c1cc2cc(Nc3ncc(F)c(Nc4cccc(O)c4)n3)ccc2o1 [Compound R926497]	1330 nM

System: Jurkat cells
Assay: Jurkat toxicity, Cell Titer Glo assay
Format: cell-based, human
Settings: not given
Protocol: Seed 50 μl cells (1×10^6/ml) into each well containing 50 μl compound. […] Shake plates for 1 minute to mix cells and compound. Incubate plates at 37° C. […] Next day, harvest 50 μl cells from each well, add to 50 μl Cell Titer Glo reagent ([…]). Shake plates for 1 minute. Read on luminometer.

SMILES	IC50
CC(C)Oc1ccc(Nc2nc(Nc3cccc(OCCO)c3)ncc2F)cc1 [Compound R935156]	4050 nM
Nc1cccc(Nc2ncc(F)c(Nc3ccc4c(c3)OCCO4)n2)c1 [Compound R950207]	> 4330 nM
OCCOc1cccc(Nc2ncc(F)c(Nc3ccc4c(c3)OCCO4)n2)c1 [Compound R935154]	> 4330 nM

System: bone marrow derived mast cells (BMMC)
Assay: BMMC high cell density IgE activation: TNFalpha
Format: cell-based, mouse
Settings: High Density section of TABLE 1, BMMC, anti-IgE activation, TNFalpha; read-out: BMMC anti-IgE TNF-alpha IC50
Summary of the method: as §1

SMILES	IC50
CC(C)Oc1ccc(Nc2nc(Nc3cccc(OCCO)c3)ncc2F)cc1 [Compound R935156]	220 nM
Nc1cccc(Nc2ncc(F)c(Nc3ccc4c(c3)OCCO4)n2)c1 [Compound R950207]	< 220 nM
OCCOc1cccc(Nc2ncc(F)c(Nc3ccc4c(c3)OCCO4)n2)c1 [Compound R935154]	131 nM

System: bone marrow derived mast cells (BMMC)
Assay: BMMC high cell density IgE activation: histamine
Format: cell-based, mouse
Settings: High Density section of TABLE 1, BMMC, anti-IgE activation, histamine; read-out: BMMC anti-IgE histamine IC50
Protocol: as §2

SMILES	IC50
CC(C)Oc1ccc(Nc2nc(Nc3cccc(OCCO)c3)ncc2F)cc1 [Compound R935156]	< 220 nM
Nc1cccc(Nc2ncc(F)c(Nc3ccc4c(c3)OCCO4)n2)c1 [Compound R950207]	< 220 nM
OCCOc1cccc(Nc2ncc(F)c(Nc3ccc4c(c3)OCCO4)n2)c1 [Compound R935154]	85 nM

System: basophil cells (human peripheral blood)
Assay: Basophil ionomycin activation: histamine release assay
Format: cell-based
Settings: basophils, ionomycin activation, histamine release; read-out: Basophils Ionomycin Histamine IC50
Summary of the method: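 Dextran-sedimented leukocytes from peripheral blood of dust-mite-allergic human donors were incubated with compound (8 concentrations, 0.5% DMSO, triplicate) and then stimulated with 2 μM ionomycin stock (20 μl added) for 30 min at 37° C. Histamine released into the supernatant was measured by ELISA.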

SMILES	IC50
O=C(NCCO)c1cc2cc(Nc3ncc(F)c(Nc4cccc(O)c4)n3)ccc2o1 [Compound R926497]	> 10000 nM

System: cultured human mast cells (CHMC)
Assay: CHMC high cell density IgE activation: TNFalpha
Format: cell-based
Settings: read-out: CHMC high density TNF-alpha
Summary of the method: as §3

SMILES	IC50
O=C(NCCO)c1cc2cc(Nc3ncc(F)c(Nc4cccc(O)c4)n3)ccc2o1 [Compound R926497]	1880 nM

System: Human Jurkat T-cells (clone N)
Assay: Jurkat T-cell activation (anti-TCR, CD69 upregulation)
Format: cell-based
Settings: not given
Summary of the method: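 Jurkat cells in RPMI + 5% FBS preincubated with compound 1 h at 37 °C, then stimulated with anti-TCR C305 at 500 ng/ml for 20 h. CD69 surface expression stained with anti-CD69-APC and read by flow cytometry; IC50 versus solvent-only control.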

SMILES	IC50
CC(C)Oc1ccc(Nc2nc(Nc3cccc(OCCO)c3)ncc2F)cc1 [Compound R935156]	1840 nM
Nc1cccc(Nc2ncc(F)c(Nc3ccc4c(c3)OCCO4)n2)c1 [Compound R950207]	1080 nM
OCCOc1cccc(Nc2ncc(F)c(Nc3ccc4c(c3)OCCO4)n2)c1 [Compound R935154]	1650 nM
O=C(NCCO)c1cc2cc(Nc3ncc(F)c(Nc4cccc(O)c4)n3)ccc2o1 [Compound R926497]	3270 nM

System: cultured human mast cells (CHMC)
Assay: CHMC low cell density IgE activation: tryptase assay
Format: cell-based
Settings: Low Density CHMC, anti-IgE activation, tryptase release; read-out: CHMC anti-IgE Tryptase IC50
Summary of the method: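 CHMC resuspended in pre-warmed MT buffer at 1000-1500 cells/well (donor-dependent) and preincubated 1 hr at 37° C, then stimulated with anti-IgE for 30 min at 37° C; unstimulated wells got MT alone. Supernatant tryptase activity read with tryptase substrate after 30 min at room temperature.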

SMILES	IC50
O=C(NCCO)c1cc2cc(Nc3ncc(F)c(Nc4cccc(O)c4)n3)ccc2o1 [Compound R926497]	138 nM

Same assay, conditions: Low Density; read-out: CHMC anti-IgE Tryptase

SMILES	IC50
CC(C)Oc1ccc(Nc2nc(Nc3cccc(OCCO)c3)ncc2F)cc1 [Compound R935156]	149 nM
Nc1cccc(Nc2ncc(F)c(Nc3ccc4c(c3)OCCO4)n2)c1 [Compound R950207]	164 nM
OCCOc1cccc(Nc2ncc(F)c(Nc3ccc4c(c3)OCCO4)n2)c1 [Compound R935154]	127 nM

System: cultured human mast cells (CHMC)
Assay: CHMC high cell density IgE activation: hexos
Format: cell-based
Settings: not given

SMILES	IC50
O=C(NCCO)c1cc2cc(Nc3ncc(F)c(Nc4cccc(O)c4)n3)ccc2o1 [Compound R926497]	1110 nM

System: cultured human mast cells (CHMC)
Assay: CHMC low cell density ionomycin activation: tryptase assay
Format: cell-based
Settings: Low Density CHMC, ionomycin activation, tryptase release; read-out: CHMC Ionomycin Tryptase IC50

SMILES	IC50
O=C(NCCO)c1cc2cc(Nc3ncc(F)c(Nc4cccc(O)c4)n3)ccc2o1 [Compound R926497]	> 10000 nM

Same assay, conditions: Low Density; read-out: CHMC Ionomycin Tryptase

SMILES	IC50
CC(C)Oc1ccc(Nc2nc(Nc3cccc(OCCO)c3)ncc2F)cc1 [Compound R935156]	> 10000 nM
Nc1cccc(Nc2ncc(F)c(Nc3ccc4c(c3)OCCO4)n2)c1 [Compound R950207]	> 10000 nM
OCCOc1cccc(Nc2ncc(F)c(Nc3ccc4c(c3)OCCO4)n2)c1 [Compound R935154]	> 10000 nM

System: basophil cells (human peripheral blood)
Assay: Basophil anti-IgE activation: histamine release assay
Format: cell-based
Settings: basophils, anti-IgE activation, histamine release; read-out: Basophils anti-IgE Histamine IC50
Protocol: (§4) The basophil activation assay was carried out using whole human peripheral blood from donors allergic to dust mites with the majority of the red blood cells removed by dextran sedimentation. Human peripheral blood was mixed 1:1 with 3% dextran T500 and RBCs were allowed to settle for 20-25min. The upper fraction was diluted with 3 volumes of D-PBS and cells were spun down for 10 min at 1500 rpm, RT. Supernatant was aspirated and cells were washed in an equal volume MT-buffer. Finally, cells were resuspended in MT-buffer containing 0.5% DMSO in the original blood volume. 80 uL cells were mixed with 20 uL compound in the presence of 0.5% DMSO, in triplicate, in a V-bottom 96-well tissue culture plate. A dose range of 8 compound concentrations was tested resulting in a 10-point dose response curve including maximum (stimulated) and minimum (unstimulated) response. […] The cells were stimulated for 30 minutes at 37° C., 5% CO2. The plate was spun for 10 min at 1500 rpm at room temperature and 80 uL the supernatant was harvested for histamine content analysis using the histamine ELISA kit supplied by Immunotech. The ELISA was performed according to supplier's instructions.

SMILES	IC50
O=C(NCCO)c1cc2cc(Nc3ncc(F)c(Nc4cccc(O)c4)n3)ccc2o1 [Compound R926497]	270 nM

System: bone marrow derived mast cells (BMMC)
Assay: BMMC high cell density IgE activation: hexosaminidase
Format: cell-based, mouse
Settings: High Density section of TABLE 1, BMMC, anti-IgE activation, hexosaminidase; read-out: BMMC anti-IgE hexos. IC50

SMILES	IC50
CC(C)Oc1ccc(Nc2nc(Nc3cccc(OCCO)c3)ncc2F)cc1 [Compound R935156]	< 220 nM
Nc1cccc(Nc2ncc(F)c(Nc3ccc4c(c3)OCCO4)n2)c1 [Compound R950207]	< 220 nM
OCCOc1cccc(Nc2ncc(F)c(Nc3ccc4c(c3)OCCO4)n2)c1 [Compound R935154]	104 nM

System: cultured human mast cells (CHMC)
Assay: CHMC high cell density IgE activation: IL-13
Format: cell-based
Settings: not given
Protocol: After sensitizing, cells are counted, pelleted (1000 rpm, 5-10 minutes), and resuspended at 1-2 ×10^6 cells/ml in MT buffer. Add 100 ul of cell suspension to each well and 100 ul of compound dilutions. The final vehicle concentration is 0.5% DMSO. Incubate at 37° C. (5% CO2) for 1 hour. After 1 hour of compound treatment, stimulate cells with 6× anti-IgE. Mix wells with the cells and allow plates to incubate at 37° C. (5% CO2) for one hour. After 1 hour incubation, pellet cells (10 minutes, 1000 RPM) and collect 200 ul per well of the supernatant, being careful not to disturb pellet. Place the supernatant plate on ice. During the 7-hour step (see next) perform tryptase assay on supernatant that had been diluted 1:500. Resuspend cell pellet in 240 ul of CM media containing 0.5% DMSO and corresponding concentration of compound. Incubate CHMC cells for 7 hours at 37° C. (5% CO2). After incubation, pellet cells (1000 RPM, 10 minutes) and collect 225 ul per well and place in −80° C. until ready to perform ELISAS. ELISAS are performed on appropriately diluted samples (determined empirically for each donor cell population so that the sample measurement falls within the standard curve) following the supplier's instructions.

SMILES	IC50
O=C(NCCO)c1cc2cc(Nc3ncc(F)c(Nc4cccc(O)c4)n3)ccc2o1 [Compound R926497]	> 10000 nM

System: basophil cells (human peripheral blood)
Assay: Basophil dustmite activation: histamine release assay
Format: cell-based
Settings: basophils, dust mite activation
Protocol: as §4

SMILES	IC50
O=C(NCCO)c1cc2cc(Nc3ncc(F)c(Nc4cccc(O)c4)n3)ccc2o1 [Compound R926497]	205 nM

System: cultured human mast cells (CHMC)
Assay: CHMC high cell density IgE activation: tryptase
Format: cell-based
Settings: not given

SMILES	IC50
O=C(NCCO)c1cc2cc(Nc3ncc(F)c(Nc4cccc(O)c4)n3)ccc2o1 [Compound R926497]	1230 nM
